In patent publication US10821115B2, “Compounds that inhibit Mcl-1 protein” (priority 2017, dated 2020):
Where two headings read alike, the source gives them in different places.

Columns and labels:
[1] = target: recombinant human Mcl-1 (residues 171-327) / Bim interaction (Homo sapiens (Human), UniProt Q07820); experiment: biochemical; type: binding; conditions: read-out: Mcl-1 HTRF IC50
[2] = tested on: human multiple myeloma cell line, OPM-2; experiment: Cell viability assay (OPM-2 10 FBS), CellTiter-Glo; type: cell-based
Summary of the method: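 OPM-2 cells at 3000 cells/well in RPMI 1640 with 10% FBS were exposed to serially diluted compounds for 16 h at 37 °C, 5% CO2.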

[3] = TR-FRET, Mcl-1(171-327) / biotin-Bim (51-76)
[4] = Homo sapiens, OPM-2, 16 h, read-out: OPM-2 10% FBS IC50 IP, OPM-2 cells, 10% FBS, 16 h, CellTiter-Glo
[5] = read-out: OPM-2 10% FBS IC50 IP, OPM-2 cells, 10% FBS, 16 h, CellTiter-Glo

recombinant human Mcl-1 (residues 171-327) / Bim interaction, sequence (Q07820 171-327): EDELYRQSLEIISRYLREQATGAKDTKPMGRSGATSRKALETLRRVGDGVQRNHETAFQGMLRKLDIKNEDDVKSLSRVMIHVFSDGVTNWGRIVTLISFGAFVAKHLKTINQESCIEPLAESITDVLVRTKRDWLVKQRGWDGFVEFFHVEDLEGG

SMILES | IC50 [1, 3] | IC50 [2, 4] | IC50 [2, 5] | further results
C#C[C@@]1(OCCN2CCOCC2)/C=C/C[C@H](C)[C@@H](C)S(=O)(=O)NC(=O)c2ccc3c(c2)N(C[C@@H]2CC[C@H]21)C[C@@]1(CCCc2cc(Cl)ccc21)CO3 [Example 100505, (1S,3′R,6′R,7′R,8′E,11′S,12′R)-6-chloro-7′-ethynyl-11′,12′-dimethyl-7′-(2-(4-morpholinyl)ethoxy)-3,4-dihydro-2H,15′H-spiro[naphthalene-1,22′-[20]oxa[13]thia[1,14]diazatetracyclo [14.7.2.0~3,6~.0~19,24~]pentacosa[8,16,18,24]tetraen]-15′-one 13′,13′-dioxide] | 0.165 nM | 137 nM |  | 
CC(C)CO[C@@]1(CN2CCN3CCOC[C@@H]3C2)/C=C/C[C@H](C)[C@@H](C)S(=O)(=O)NC(=O)c2ccc3c(c2)N(C[C@@H]2CC[C@H]21)C[C@@]1(CCCc2cc(Cl)ccc21)CO3 [Example 349, (1S,3′R,6′R,7′S,8′E,11′S,12′R)-6-chloro-7′-((9aS)-hexahydropyrazino[2,1-c][1,4]oxazin-8(1H)-ylmethyl)-11′,12′-dimethyl-7′-(2-methylpropoxy)-3,4-dihydro-2H,15′H-spiro[naphthalene-1,22′-[20]oxa[13]thia[1,14]diazatetracyclo [14.7.2.0~3,6~.0~19,24~]pentacosa[8,16,18,24]tetraen]-15′-one 13′,13′-dioxide] |  |  |  | IC50 ([1]; 0.1 nM Mcl-1(171-327), 0.05 nM biotin-Bim (51-76)): 1.61 nM; IC50 ([2]; Homo sapiens, OPM-2, 16 h, read-out: OPM-2 10% FBS IC50 IP, OPM-2 cells, 10% FBS, 16 h incubation): 7790 nM
C[C@@H]1[C@@H](C)C/C=C/[C@@](O)(C#CCCN(C)C)[C@@H]2CC[C@H]2CN2C[C@@]3(CCCc4cc(Cl)ccc43)COc3ccc(cc32)C(=O)NS1(=O)=O [Example 100309, (1S,3′R,6′R,7′S,8′E,11′S,12′R)-6-chloro-7′-(4-(dimethylamino)-1-butyn-1-yl)-7′-hydroxy-11′,12′-dimethyl-3,4-dihydro-2H,15′H-spiro[naphthalene-1,22′-[20]oxa[13]thia[1,14]diazatetracyclo [14.7.2.0~3,6~.0~19,24~]pentacosa[8,16,18,24]tetraen]-15′-one 13′,13′-dioxide] | 0.244 nM |  | 385 nM | 
C[C@@H]1[C@@H](C)CCC[C@](O)(c2ncccn2)[C@@H]2CC[C@H]2CN2C[C@@]3(CCCc4cc(Cl)ccc43)COc3ccc(cc32)C(=O)NS1(=O)=O [Example 100279, (1S,3′R,6′R,7′R,11′S,12′R)-6-chloro-7′-hydroxy-11′,12′-dimethyl-7′-(2-pyrimidinyl)-3,4-dihydro-2H,15′H-spiro[naphthalene-1,22′-[20]oxa[13]thia[1,14]diazatetracyclo [14.7.2.0~3,6~.0~19,24~]pentacosa[16,18,24]trien]-15′-one 13′,13′-dioxide] |  |  | 3250 nM | IC50 [1]: 0.777 nM
CO[C@]1(C#CCN2CCOCC2)/C=C/C[C@H](C)[C@@H](C)S(=O)(=O)NC(=O)c2ccc3c(c2)N(C[C@@H]2CC[C@H]21)C[C@@]1(CCCc2cc(Cl)ccc21)CO3 [Example 100409, (1S,3′R,6′R,7′R,8′E,11′S,12′R)-6-chloro-7′-methoxy-11′,12′-dimethyl-7′-(3-(4-morpholinyl)-1-propyn-1-yl)-3,4-dihydro-2H,15′H-spiro[naphthalene-1,22′-[20]oxa[13]thia[1,14]diazatetracyclo [14.7.2.0~3,6~.0~19,24~]pentacosa[8,16,18,24]tetraen]-15′-one 13′,13′-dioxide] | 0.124 nM |  | 206 nM | 
CO[C@]1(CCOS(C)(=O)=O)/C=C/C[C@H](C)[C@@H](C)S(=O)(=O)NC(=O)c2ccc3c(c2)N(C[C@@H]2CC[C@H]21)C[C@@]1(CCCc2cc(Cl)ccc21)CO3 [Example 100351, 2-((1S,3′R,6′R,7′R,8′E,11′S,12′R)-6-chloro-7′-methoxy-11′,12′-dimethyl-13′,13′-dioxido-15′-oxo-3,4-dihydro-2H-spiro[naphthalene-1,22′-[20]oxa[13]thia[1,14]diazatetracyclo [14.7.2.0~3,6~.0~19,24~]pentacosa[8,16,18,24]tetraen]-7′-yl)ethyl methanesulfonate] | 0.115 nM | 2020 nM |  | 
